# Laboratory results reported in patent publication US12415799B2, “Indazole-fused cyclic compound” (Zhejiang Yangli Pharmaceutical Technology Co., Ltd., priority 2020, dated 2025).
# Columns and labels:
# CYP3A4 = CYP3A4 (Homo sapiens (Human), UniProt P08684); test: Cytochrome P450 isoenzyme inhibition, human liver microsomes; assay type: in vitro ADME
# Description: Experimental purposes: To test the inhibitory effect of test compound on the activity of human liver microsomal cytochrome P450 isoenzymes (CYP1A2 and CYP3A4) (Corning, Co., Ltd.).
# Experimental operation: Firstly, the test compound (10 mM) was subjected to gradient dilution to prepare a working solution (100×final concentration), and the concentration of the working solution was: 5, 1.5, 0.5, 0.15, 0.05, 0.015 and 0.005 mM, respectively, and the working solution of each positive inhibitor of P450 isoenzyme (CYP1A2 and CYP3A4) and its specific substrate mixture (5 in 1) were prepared; and then the human liver microsomes frozen in the −80° C. refrigerator were thawed on ice, and all the human liver microsomes were dissolved, diluted with PB, and a certain concentration of working solution (0.253 mg/mL) was prepared; 20 μL of substrate mixture was added to the reaction plate (20 μL of PB was added to the blank well), while 158 μL of human liver microsomal working solution was added to the reaction plate, and the reaction plate was placed on ice for later use; at this time, 2 μL of various concentrations of the test compound (N=1) and specific inhibitor (N=2) were added to the corresponding well, and the corresponding organic solvent was added to the non-inhibitor (test compound or positive inhibitor) group as a control group sample (a ratio of DMSO:MeOH in the test compound control sample was 1:1, a ratio of DMSO:MeOH in the positive control sample was 1:9); after pre-incubation in a water bath at 37° C. for 10 min, 20 μL of coenzyme factor (NADPH) solution was added to the reaction plate, and incubated in a water bath at 37° C. for 10 min; and 400 μL of cold acetonitrile solution (internal standard was 200 ng/mL tolbutamide and labetalol) was added to terminate the reaction; the reaction plate was placed on a shaker and shaked for 10 minutes; and then centrifuged at 4,000 rpm for 20 minutes; 200 μL of the supernatant was taken and added to 100 μL of water for sample dilution; finally the plate was sealed, shaked and shaked well, for LC/MS/MS detection.
# [1] = In vivo pharmacokinetic study in mice; parameters: species or system female Balb/c mice
# Description: (§1) Experimental purposes: To test the drug concentration in plasma of mice at different times after intravenous and intragastric administration of the test compound by LC/MS/MS using female Balb/c mice as the experimental animals. To study the pharmacokinetics of the test compound in mice in vivo and evaluate their pharmacokinetic characteristics.
# Experimental animals: 4 healthy female Balb/c mice were divided into 2 groups according to the principle of similar body weight, with 2 mice in each group in IV group and 2 mice in each group in PO group. Animals were purchased from Shanghai Lingchang Biotechnology Co., Ltd.
# Appropriate number of samples were weighed and prepared into 1 mg/mL solution respectively, and the mixture was stirred and ultrasonicated to reach a clear state, and the solvent was 15% HP-β-CD.
# Administration: After fasting overnight, IV group was administered intravenously, and the dosage of the test compound was 5 mg/kg; PO group was administered intragastrically, and the dosage of the test compound was 10 mg/kg.
# (§2) After the female Balb/c mice in the intravenous injection group were given the test compound respectively, 30 μL of blood was collected from the saphenous vein at 0.0833, 0.25, 0.5, 1, 2, 4, 8, and 24 hours, and placed in a commercialized anticoagulant tube added with EDTA-K2 in advance. After intragastric administration of the test compound, 30 μL of blood was collected from the saphenous vein at 0.25, 0.5, 1, 2, 4, 8, 12 and 24 hours, respectively, and placed in a commercialized anticoagulant tube added with EDTA-K2 in advance. After centrifugation (3,200 g, 4° C., 10 minutes), the plasma was collected, transferred to a pre-cooled centrifuge tube, quickly frozen in dry ice, and stored in a refrigerator at −60° C. or lower, until LC-MS/MS analysis. Animals were allowed to eat 4 hours after administration. LC/MS/MS method was used to determine the content of the test compound in the plasma of mice after intravenous and intragastric administration. The linear range of the method was 2.00 to 2000 nM.
# [2] = In vivo pharmacokinetic study in rats; parameters: species or system male SD rats
# Description: as §1, with “rats” for “mice”, “male fasted SD rats” for “female Balb/c mice”
# Experimental animals: 4 healthy male SD rats were divided into 2 groups according to the principle of similar body weight, with 2 mice in each group in IV group and 2 mice in each group in PO group. Animals were purchased from Beijing Vital River Laboratory Animal Co., Ltd.
# IV group: Appropriate number of samples were weighed and prepared into 0.5 mg/mL solution respectively, and the mixture was stirred and ultrasonicated to reach a clear state, and the solvent was 15% HP-β-CD.
# PO group: Appropriate amount of the solution prepared in IV group was diluted to 0.4 mg/mL with 15% HP-β-CD.
# Administration: After fasting overnight, IV group was administered intravenously, and the dosage of the test compound was 1 mg/kg; PO group was administered intragastrically, and the dosage of the test compound was 2 mg/kg.
# as §2, with “male rats” for “female Balb/c mice”, “200” for “30”, “jugular” for “saphenous”, “rats” for “mice”
# [3] = female, Balb/c, mouse, plasma, iv, i.v. 5 mg/kg
# [4] = female, Balb/c, mouse, plasma, po, p.o. 10 mg/kg
# [5] = male, SD, rat, plasma, iv, i.v. 1 mg/kg
# [6] = male, SD, rat, plasma, po, p.o. 2 mg/kg
# Chain of CYP3A4 (P08684 whole entry): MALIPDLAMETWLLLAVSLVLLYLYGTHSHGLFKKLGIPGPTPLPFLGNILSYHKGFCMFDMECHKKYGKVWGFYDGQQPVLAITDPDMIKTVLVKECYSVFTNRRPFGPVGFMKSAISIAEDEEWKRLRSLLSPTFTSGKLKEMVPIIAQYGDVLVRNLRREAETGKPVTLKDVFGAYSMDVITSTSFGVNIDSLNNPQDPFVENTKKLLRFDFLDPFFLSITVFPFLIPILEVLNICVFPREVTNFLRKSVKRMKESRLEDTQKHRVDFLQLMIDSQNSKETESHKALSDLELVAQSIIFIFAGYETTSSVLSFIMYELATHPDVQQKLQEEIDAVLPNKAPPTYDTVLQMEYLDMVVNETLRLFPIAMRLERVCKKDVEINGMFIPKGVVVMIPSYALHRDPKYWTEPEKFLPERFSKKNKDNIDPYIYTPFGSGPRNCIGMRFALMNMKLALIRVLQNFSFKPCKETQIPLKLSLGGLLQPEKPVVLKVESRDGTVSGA
smiles,measurement,setting,value
FCCCN1CC[C@H](Nc2cnc(C3=C(CC(F)(F)F)CCCc4c3ccc3[nH]nc(F)c43)cn2)C1 [Compound 11A],IC50,CYP3A4,25.7 µM
same,AUC0-last,[1]; i.v. 5 mg/kg,5.27 µM·h
same,Cl,[1]; i.v. 5 mg/kg,30.2 mL/min/kg
same,T1/2,[1]; i.v. 5 mg/kg,5.16 h
same,Vdss,[1]; i.v. 5 mg/kg,11.1 L/kg
same,AUC0-last,[1]; p.o. 10 mg/kg,5.856 µM·h
same,Cmax,[1]; p.o. 10 mg/kg,779 nM
same,T1/2,[1]; p.o. 10 mg/kg,4.72 h
same,F %,[1]; p.o. 10 mg/kg vs i.v. 5 mg/kg,55.4%
same,AUC0-last,[2]; i.v. 1 mg/kg,0.518 µM·h
same,Cl,[2]; i.v. 1 mg/kg,53.1 mL/min/kg
same,T1/2,[2]; i.v. 1 mg/kg,3.19 h
same,Vdss,[2]; i.v. 1 mg/kg,14.5 L/kg
same,AUC0-last,[2]; p.o. 2 mg/kg,0.601 µM·h
same,Cmax,[2]; p.o. 2 mg/kg,66.9 nM
same,T1/2,[2]; p.o. 2 mg/kg,8.96 h
same,F %,[2]; p.o. 2 mg/kg vs i.v. 1 mg/kg,58.1%
FCCCN1CC(Nc2ccc(C3=C(CC(F)(F)F)CCCc4c3ccc3[nH]nc(F)c43)nc2)C1 [Compound 2],IC50,CYP3A4,47.2 µM
same,AUC(0-t),[1]; [3],8.47 µM·h
same,clearance,[1]; [3],18.3 mL/min/kg
same,half-life,[1]; [3],6.85 h
same,Vd,"[1]; female, Balb/c, mouse, plasma, iv, i.v. 5 mg/kg, read-out: Vdss",10.6 L/kg
same,bioavailability,"[1]; female, Balb/c, mouse, plasma, oral, p.o. 10 mg/kg vs i.v. 5 mg/kg",71.8%
same,AUC(0-t),[1]; [4],11.7 µM·h
same,Cmax,[1]; [4],937 nM
same,half-life,[1]; [4],7.67 h
same,AUC(0-t),[2]; [5],0.493 µM·h
same,clearance,[2]; [5],54.6 mL/min/kg
same,half-life,[2]; [5],3.62 h
same,Vd,"[2]; male, SD, rat, plasma, iv, i.v. 1 mg/kg, read-out: Vdss",15.9 L/kg
same,bioavailability,"[2]; male, SD, rat, plasma, oral, p.o. 2 mg/kg vs i.v. 1 mg/kg",24.3%
same,AUC(0-t),[2]; [6],0.24 µM·h
same,Cmax,[2]; [6],39.3 nM
same,half-life,[2]; [6],5.8 h
